Experimental data from US20020049157A1, “Use of proteasome inhibitors for treating cancer, inflammation, autoimmune disease, graft rejection and septic shock” (priority 1998, published 2002).

How the values were obtained:
CD25 = CD25 (IL-2Rα) upregulation by two-color flow cytometry; type: cell-based, human; settings: PHA; LAC 10 μM added in the beginning of the culture
Experimental: CD25 expression on T cells was evaluated by anti-CD25-PE/anti-CD3-FITC two-color flow cytometry. Similar results were obtained in two independent experiments, and a representative one is shown. The data are presented as two color histograms in forms of contours, as well as in an overlay histogram.
In the four systems of T and B cell activation and proliferation studied in the first section, the growth promoting activity of IL-2 is indirectly (for stimulation by PHA, anti-CD3, and anti-CD28 plus ionomycin), or directly (for SAC plus IL-2) involved. We then investigated the role of proteasome in IL-2Rα expression and IL-2 production. […] Under the experimental condition used, the viability of the LAC-treated cell was reasonable (>80% at 40 h) as described in the previous section as LAC was added only once initially. Moreover, no consistent change of IL-2 production in LAC-treated cells was a functional indication that the cell viability was reasonable and is not of a concern in interpreting the data. The results from this section indicate that IL-2Rα upregulation but not IL-2 production is proteasome-dependent, and the suppressed IL-2Rα expression likely contributes to LAC's inhibitory effect on T cells activation and proliferation. The Proteasome Activity is Critically Required Between G0 and G1/S Boundary in T Cells […]

Tonsillar T cells = assay: T cell viability by trypan blue exclusion; type: cell-based, human; settings: for decrease of viability compared with cells without LAC: 10 μM LAC, medium or PHA
Experimental: Tonsillar T cells (A, B, and D) and Jurkat cells (C and E) were treated with LAC (10 μM for T cells and 6 μM for Jurkat cells). LAC was added at the beginning of the culture or 40 h after T cell activation as indicated. The cells were harvested at the time points as shown. They were evaluated for their viability with trypan blue exclusion (A, B, and C), and for their mode of cell death according to DNA fragmentation (D and E).
The viability of T cells and Jurkat cells after LAC-treatment was first evaluated with trypan blue exclusion. Resting T cells (T cells in medium) or PHA-stimulated T cells were cultured with 10 μM LAC (LAC added at the beginning of the culture).
There was a tendency that the activated T cells were more susceptible to LAC than the resting T cells. This became more evident when LAC was added to T cells 40 h after the PHA activation (FIG. 2B). […] On the other hand, the viability of the resting T cells in medium had only a small decrease (from 98% of the control to 87% of the LAC-treated) after 24 h of LAC presence.

Jurkat cells = assay: Cell cycle progress in synchronized Jurkat cells (propidium iodide flow cytometry); type: cell-based
Experimental: For the last 3 h of the treatment, LAC (6 μM) was added to the cultures destined to be treated by LAC later. The cells were then released by washing out nocodazole, and recultured in complete medium with or without 6 μM LAC. The cells were sampled at 0 h, 4 h and 8 h after the G2/M release, stained with propidium iodide, and analyzed with flow cytometry.
B. LAC slows the cell cycle progress from the G1/S boundary to the G2/M phase in synchronized Jurkat cells Jurkat cells were synchronized at the G1/S by isoleucine starvation followed by a hydroxyurea treatment. The synchronized cells were released by washing out hydroxyurea and were cultured in complete medium in the absence or presence of LAC (6 μM). The cells were sampled at 0 h, 3 h, 6 h, 9 h, 12 h, 15 h and 24 h after the release, and were stained with propidium iodide and analyzed with flow cytometry.
We used synchronized Jurkat cells to identify the LAC-sensitive phase(s) of the cell cycle. Jurkat cells were first synchronized at the G2/M boundary by nocodazole (FIG. 6A). […]
We next studied requirement of the proteasome activity for the progression from the G1/S boundary to the G2/M phase. […] It is to be noted that although the percentage of cells in the S/G2/M phase in the LAC-treated sample was similar to that of controls (the inset table of FIG. 6B), the peak of fluorescence was lagged behind (histogram array). […]

mouse lymph node cells = assay: Aggregate formation of Con A-stimulated lymph node cells; type: cell-based; settings: 2 μg/ml Con A plus 10 μM lactacystin; 24 h
Description: Cell-cell interaction is essential in antigen presentation and in T cell's help to T and B cells. The adhesion molecules are necessary to establish the cell-cell interaction. Blocking the adhesion molecules ICAM-1 and LFA-1 is known to inhibit immune responses and to suppress graft rejection. […] Therefore, inhibition of the proteasome activity will be a useful way to control undesirable immune responses during graft rejection, autoimmune diseases, and inflammation.

For `CC(=O)N[C@@H](CSC(=O)[C@]1([C@@H](O)C(C)C)NC(=O)[C@H](C)[C@@H]1O)C(=O)O` [LAC, lactacystin], the “CD25 upregulation in CD3+ T cells” value (CD25) was “significantly inhibited”, the “decrease of viability compared with cells without LAC” value (Tonsillar T cells; 16 h culture) was < 12% and the “decrease of viability compared with cells without LAC” value (Tonsillar T cells; 64 h culture) was “less than 27%”. For the same compound, the “viability (trypan blue exclusion)” value (Tonsillar T cells; PHA-stimulated T cells, 10 μM LAC added at beginning, 16 h) was 83%, the “viability (trypan blue exclusion)” value (Tonsillar T cells; PHA-stimulated T cells, 10 μM LAC added at beginning, 64 h) was 63% and the “viability of the LAC-treated cell” value (Tonsillar T cells; PHA, LAC 10 μM added once initially, at 40 h) was > 80%. The “viability of the treated cells” value (Tonsillar T cells; PHA, LAC added once at the beginning, at 16 h) was 83, the “change of viability (trypan blue exclusion)” value (Tonsillar T cells; activated T cells, LAC added 40 h after PHA, 9 h culture) was “did not change the viability significantly” and the “viability (trypan blue exclusion)” value (Tonsillar T cells; activated T cells, LAC added 40 h after PHA, additional 24 h culture) was 46%. For the same compound, the “viability (trypan blue exclusion)” value (Tonsillar T cells; resting T cells in medium, 10 μM LAC added at beginning, 16 h) was 92%, the “viability (trypan blue exclusion)” value (Tonsillar T cells; resting T cells in medium, 10 μM LAC added at beginning, 64 h) was 79% and the “viability (trypan blue exclusion)” value (Tonsillar T cells; resting T cells in medium, 24 h of LAC presence) was 87%. For the same compound, the “cell cycle progression from the G1/S boundary to the G2/M phase” value (Jurkat cells; HU-synchronized, LAC 6 μM added immediately after release) was “slowed but did not block”, the “progress from G2/M through M phase to G1 phase” value (Jurkat cells; nocodazole-synchronized, LAC 6 μM 3 h before and after release) was “at a similar pace as the control cells” and the aggregate formation (mouse lymph node cells) was “effectively block the aggregate formation”.
